# pEC50: −log10 of the molar value.
# Assays:
# [1] = AUC (0 to 24 hrs) in Sprague-Dawley rat at 10 mg/kg, po measured for 24 hrs by LC-MS/MS analysis; type: ADME, organism-based; details: in vivo
# [2] = Oral bioavailability in Sprague-Dawley rat at 10 mg/kg measured for 24 hrs by LC-MS/MS analysis; type: ADME, organism-based; details: in vivo
# [3] = Ratio of total drug concentration in liver to plasma in Sprague-Dawley rat at 10 mg/kg, po measured for 24 hrs by LC-MS/MS analysis; type: ADME, organism-based; details: liver and plasma
# [4] = Selectivity ratio of drug concentration in liver in Sprague-Dawley rat at 10 mg/kg, po measured for 24 hrs to EC90 for antiviral activity against HBV infected in human HepG2.2.15 cells assessed as reduction in HBsAg level; type: ADME, organism-based; details: in vivo
# [5] = system: Hepatitis B virus; experiment: Antiviral activity against HBV genotype D in immuno-competent C57BL/6 mouse model of chronic HBV assessed as log10 reduction in HBsAg production at 3 mg/kg, po qd for 7 days measured 24 hrs post-last dose by EIA (reference value: 0.67); type: functional; details: time 8 day
# [6] = target: CYP2D6 (Homo sapiens, UniProt P10635); experiment: Inhibition of CYP2D6 in human liver microsomes using dextromethorphan as substrate preincubated for 30 min followed by NADPH addition measured after 12 mins by LC-MS/MS analysis; type: ADME, Microsome; details: human, liver microsomes, probe dextromethorphan
# [7] = target: T1, CYP3A4 (Homo sapiens, UniProt P08684); experiment: Inhibition of CYP3A4 in human liver microsomes using midazolam as substrate preincubated for 30 min followed by NADPH addition measured after 12 mins by LC-MS/MS analysis; type: ADME, Microsome; details: human, liver microsomes, probe midazolam
# [8] = target: T1, CYP3A4; experiment: Inhibition of CYP3A4 in human liver microsomes using testosterone as substrate preincubated for 30 min followed by NADPH addition measured after 12 mins by LC-MS/MS analysis; type: ADME, Microsome; details: human, liver microsomes, probe testosterone
# [9] = Drug concentration in Sprague-Dawley rat liver at 10 mg/kg, po measured for 24 hrs by LC-MS/MS analysis; type: ADME, organism-based; details: read-out: Ct
# [10] = Total AUC (0 to 24 hrs) in Beagle dog at 5 mg/kg, po qd measured after 91 days; type: ADME, organism-based, Canis lupus familiaris; details: in vivo, time 91 day
# [11] = Total Cmax in Beagle dog at 15 mg/kg, po qd measured after 91 days; type: ADME, organism-based, Canis lupus familiaris; details: in vivo, time 91 day
# [12] = Free Cmax in Beagle dog at 15 mg/kg, po qd measured after 91 days; type: ADME, organism-based, Canis lupus familiaris; details: in vivo, 2184 h, time 91 day
# [13] = Total AUC (0 to 24 hrs) in Beagle dog at 15 mg/kg, po qd measured after 91 days; type: ADME, organism-based, Canis lupus familiaris; details: in vivo, time 91 day
# [14] = Free Cmax in Beagle dog at 45 mg/kg, po qd measured after 91 days; type: ADME, organism-based, Canis lupus familiaris; details: in vivo, 2184 h, time 91 day
# [15] = Total AUC (0 to 24 hrs) in Beagle dog at 45 mg/kg, po qd measured after 91 days; type: ADME, organism-based, Canis lupus familiaris; details: in vivo, time 91 day
# [16] = Total Cmax in Beagle dog at 60 mg/kg, po qd measured after 91 days; type: ADME, organism-based, Canis lupus familiaris; details: in vivo, time 91 day
# [17] = Free Cmax in Beagle dog at 60 mg/kg, po qd measured after 91 days; type: ADME, organism-based, Canis lupus familiaris; details: in vivo, 2184 h, time 91 day
# [18] = Total AUC (0 to 24 hrs) in Beagle dog at 60 mg/kg, po qd measured after 91 days; type: ADME, organism-based, Canis lupus familiaris; details: in vivo, time 91 day
# [19] = Toxicity in Beagle dog assessed as sporadic splayed limbs at 5 to 15 mg/kg, po qd measured after 38 days; type: organism-based, Canis lupus familiaris; details: in vivo, 912 h, dose 5-15 mg/kg, time 38 day
# [20] = Toxicity in Beagle dog assessed as uncoordinated movements at 15 mg/kg, po qd measured after 14 days; type: organism-based, Canis lupus familiaris; details: in vivo, 336 h, time 14 day
# [21] = Toxicity in Beagle dog assessed as animal death at 60 mg/kg, po qd measured after 45 days; type: organism-based, Canis lupus familiaris; details: in vivo, 1080 h, time 45 day
# [22] = AUC (0 to 24 hrs) in CD-1 mouse at 0.2 mg/kg, po measured for 24 hrs by LC-MS/MS analysis; type: ADME, organism-based; details: in vivo
# [23] = Selectivity ratio of drug concentration in liver in CD-1 mouse at 0.2 mg/kg, po measured for 12 hrs to EC90 for antiviral activity against HBV infected in human HepG2.2.15 cells assessed as reduction in HBsAg level; type: ADME, organism-based; details: in vivo
# [24] = Ratio of total drug concentration in liver to plasma in CD-1 mouse at 0.2 mg/kg, po measured for 24 hrs by LC-MS/MS analysis; type: ADME, organism-based; details: CD-1, mouse, liver and plasma
# [25] = Drug concentration in CD-1 mouse lung at 10 mg/kg, po measured for 24 hrs by LC-MS/MS analysis; type: ADME, organism-based; details: read-out: Ct
# [26] = Drug concentration in CD-1 mouse heart at 10 mg/kg, po measured for 24 hrs by LC-MS/MS analysis; type: ADME, organism-based; details: read-out: Ct
# [27] = Drug concentration in Sprague-Dawley rat kidney at 5 mg/kg, po measured for 24 hrs by LC-MS/MS analysis; type: ADME, organism-based; details: read-out: Ct
# [28] = Ratio of drug concentration in kidney to plasma of CD-1 mouse at 10 mg/kg, po measured for 24 hrs by LC-MS/MS analysis; type: ADME, organism-based; details: kidney and plasma
# [29] = Ratio of drug concentration in lung to plasma of Sprague-Dawley rat at 5 mg/kg, po measured for 24 hrs by LC-MS/MS analysis; type: ADME, organism-based
# [30] = Ratio of drug concentration in heart to plasma of Sprague-Dawley rat at 5 mg/kg, po measured for 24 hrs by LC-MS/MS analysis; type: ADME, organism-based
# [31] = system: Hepatitis B virus; experiment: Antiviral activity against HBV infected in human primary hepatocytes assessed as reduction in HBsAg production pre-infected cells with virus followed by inoculum removal and subsequent addition of compounds with replenishment on days 4,7,9,11 and 14 post-infection measured after 16 days; type: functional, organism-based; details: Hepatocyte, 384 h
# [32] = system: Hepatitis B virus; experiment: Antiviral activity against HBV infected in human primary hepatocytes assessed as reduction in HBeAg production pre-infected cells with virus followed by inoculum removal and subsequent addition of compounds with replenishment on days 4,7,9,11 and 14 post-infection measured after 16 days; type: functional, organism-based; details: Hepatocyte, 384 h
# [33] = system: Hepatitis B virus; experiment: Antiviral activity against HBV infected in human primary hepatocytes assessed as reduction in HBV DNA production pre-infected cells with virus followed by inoculum removal and subsequent addition of compounds with replenishment on days 4,7,9,11 and 14 post-infection measured after 16 days; type: functional, organism-based; details: Hepatocyte, 384 h
# [34] = Free Cmax in Beagle dog at 15 mg/kg, po qd measured after 60 days; type: ADME, organism-based, Canis lupus familiaris; details: in vivo, 1440 h, time 60 day
# [35] = Total Cmax in Beagle dog at 45 mg/kg, po qd measured after 60 days; type: ADME, organism-based, Canis lupus familiaris; details: in vivo, time 60 day
# [36] = Toxicity in male Beagle dog assessed as decrease in body weight at 15 to 45 mg/kg, po qd measured for 60 days; type: organism-based, Canis lupus familiaris; set-up: scale not given: the % may be the effect or the level left; details: in vivo, 1440 h, dose 15-45 mg/kg, time 60 day
# [37] = Toxicity in female Beagle dog assessed as fold decrease in cholesterol level at 15 to 45 mg/kg, po qd measured for 60 days; type: organism-based, Canis lupus familiaris; set-up: scale not given: the % may be the effect or the level left; details: in vivo, 1440 h, dose 15-45 mg/kg, time 60 day
# [38] = Ratio of drug concentration in liver to plasma of Sprague-Dawley rat at 5 mg/kg, po measured for 24 hrs by LC-MS/MS analysis; type: ADME, organism-based; details: liver and plasma
# [39] = in vivo, po, 5 mg/kg, 24 h, BLD = below limit of detection
# T1 sequence (P08684 whole entry): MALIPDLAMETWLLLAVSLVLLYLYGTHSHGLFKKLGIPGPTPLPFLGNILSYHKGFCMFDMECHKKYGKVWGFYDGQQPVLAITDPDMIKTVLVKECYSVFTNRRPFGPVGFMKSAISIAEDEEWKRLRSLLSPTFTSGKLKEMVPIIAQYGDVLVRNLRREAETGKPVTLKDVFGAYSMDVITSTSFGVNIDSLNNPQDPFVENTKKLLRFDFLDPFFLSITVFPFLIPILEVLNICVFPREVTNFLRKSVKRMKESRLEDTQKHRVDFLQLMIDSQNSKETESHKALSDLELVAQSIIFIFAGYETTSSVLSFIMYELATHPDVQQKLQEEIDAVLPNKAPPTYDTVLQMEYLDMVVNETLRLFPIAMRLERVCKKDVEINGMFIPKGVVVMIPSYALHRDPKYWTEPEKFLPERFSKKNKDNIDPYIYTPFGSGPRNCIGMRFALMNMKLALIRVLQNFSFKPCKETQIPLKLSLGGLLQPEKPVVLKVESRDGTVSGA
# CYP2D6, sequence (P10635 whole entry): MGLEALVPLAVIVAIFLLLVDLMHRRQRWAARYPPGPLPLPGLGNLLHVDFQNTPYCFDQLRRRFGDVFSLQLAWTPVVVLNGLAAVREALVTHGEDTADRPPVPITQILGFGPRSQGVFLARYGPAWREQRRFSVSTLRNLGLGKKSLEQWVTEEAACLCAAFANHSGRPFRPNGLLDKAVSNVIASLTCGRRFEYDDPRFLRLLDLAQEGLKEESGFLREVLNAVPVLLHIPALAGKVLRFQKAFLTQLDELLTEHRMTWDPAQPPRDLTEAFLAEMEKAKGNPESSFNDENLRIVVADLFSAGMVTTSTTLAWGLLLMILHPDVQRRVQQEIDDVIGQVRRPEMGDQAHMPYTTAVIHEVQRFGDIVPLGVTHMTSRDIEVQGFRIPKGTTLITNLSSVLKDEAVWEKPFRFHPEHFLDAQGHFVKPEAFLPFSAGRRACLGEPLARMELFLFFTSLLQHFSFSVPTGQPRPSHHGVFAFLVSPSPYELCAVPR
smiles,measurement,setting,value
COCCCOc1cc2c(nc1OC)-c1cc(=O)c(C(=O)O)cn1[C@H](C(C)C)C2,AUC(0-t) at 24 h,[1],13900 ng·h/mL
same,bioavailability,[2],80%
same,Kp at 24 h,[3],3
same,Ratio,[4],5
same,log(activity),[5],0.68
same,IC50 at 12 min,[6],> 25000 nM
same,IC50 at 12 min,[7],> 25000 nM
same,IC50 at 12 min,[8],> 25000 nM
same,concentration at 24 h,[9],93 ng/g
same,AUC at 2184 h,[10],10500 ng·h/mL
same,Cmax,[11],11500 ng/mL
same,fCmax,[12],4270 ng/mL
same,AUC at 2184 h,[13],30600 ng·h/mL
same,fCmax,[14],10300 ng/mL
same,AUC at 2184 h,[15],95200 ng·h/mL
same,Cmax,[16],18700 ng/mL
same,fCmax,[17],6940 ng/mL
same,AUC at 2184 h,[18],128000 ng·h/mL
same,Activity,[19],Toxic
same,Activity,[20],Toxic
same,Activity,[21],Toxic
COc1cc(OC(F)F)c2nc3c(n2c1)C[C@@H](C(C)(C)C)c1cc(C(=O)O)c(=O)[nH]c1-3,AUC(0-t) at 24 h,[22],148 ng·h/mL
same,Ratio,[23],166
same,Kp at 24 h,[24],116
same,log(activity),[5],0.8
same,concentration at 24 h,[25],25 ng/g
same,concentration at 24 h,[26],15 ng/g
same,concentration at 24 h,[27],5.5 ng/g
same,Kp at 24 h,[28],1.3
same,Ratio,[29]; [39],Bld
same,Ratio,[30]; [39],Bld
same,pEC50,[31],8.07
same,pEC50,[32],8.07
same,pEC50,[33],8.07
same,fCmax,[34],653 ng/mL
same,Cmax,[35],17800 ng/mL
same,Activity,[36],< 15%
same,Activity,[37],< 30%
CC(C)(C)[C@@H]1Cc2c(nc3c(C(F)(F)F)cc(C4CC4)cn23)-c2[nH]c(=O)c(C(=O)O)cc21,AUC(0-t) at 24 h,[22],273 ng·h/mL
same,Ratio,[23],572
same,Kp at 24 h,[24],97
same,concentration at 24 h,[25],35 ng/g
same,concentration at 24 h,[26],15 ng/g
same,concentration at 24 h,[27],6 ng/g
same,Kp at 24 h,[28],0.3
same,Kp at 24 h,[38],920
same,Kp at 24 h,"[29]; Sprague-Dawley, lung and plasma",0.7
same,Kp at 24 h,"[30]; Sprague-Dawley, heart and plasma",0.2

# Source: ChEMBL document CHEMBL6127124, “Structure-Activity Relationships and Discovery of (S)-5-(tert-Butyl)-11-(difluoromethoxy)-9-methoxy-2-oxo-1,2,5,6-tetrahydropyrido[2',1':2,3]imidazo[4,5-h]quinoline-3-carboxylic Acid (AB-161), a Novel Orally Available and Liver-Centric HBV RNA Destabilizer” (J Med Chem, 2024)
